Patent publication US20210341448A1, “SCREENING METHOD FOR THERAPEUTIC DRUG OR PROPHYLACTIC DRUG FOR TAUOPATHY AND DIAGNOSTIC METHOD FOR TAUOPATHY” (National Center for Geriatrics and Gerontology, priority 2018, published 2021)

How the values were obtained:
NMDAR [1] = biological target: T1, NMDAR (Homo sapiens, UniProt Q05586); assay: Measurement of calcium influx through NMDAR into NT2-N cells; assay type: cell-based; conditions: Cal-520, NT2-N cells, antagonist 50 μM
T1 construct: endogenous in cells; host or cells: NT2-N neurons differentiated from NTERA-2 cl.D1 [NT2/D1] cells (ATCC CRL-1973)
Experimental: Cultured neurons expressing NMDARs retaining physiological functions were prepared by the following procedure to evaluate the NMDAR activation ability of the tau oligomer. The NTERA-2 cl.D1[NT2/D1] cells (ATCC CRL-1973) (hereinafter described as “NT2 cell”), which are derived from a human pluripotent embryonic cancer, were adhesively cultured on 10-cm plastic dish in maintenance culture medium (high glucose DMEM (Sigma-Aldrich, D6429), 10% FBS, 100 U/ml penicillin/streptomycin) under the conditions of 37° C. and 5% CO2 for 3 to 4 days until the confluency stage was attained. The NT2 cells were detached using Accutase (Innovative Cell Technologies, #AT104), were passaged, and were maintained over a period of 50 days. The medium was replaced 3 times a week.
The maintenance-cultured NT2 cells were dispersed in a low attachment petri dish (STAR SDish9015, RIKAKEN CO., LTD.) in a concentration of 1.5×10^6 to 2.5×10^6/dish, suspension-cultured under the conditions of 37° C. and 5% CO2 on a shaker (100 rpm), and 1 day later were induced to differentiate by adding 1 μM of all-trans-retinoic acid (abcam), to thereby form spheroids. 14 days later, the spheroids were collected, seeded in a 10-cm dish coated with 5 μg/ml of poly-D-lysin (PDL) (Sigma-Aldrich)/Laminin (LAM) (iMatrix-511, Nippi Inc.) and adhesively cultured under the conditions of 37° C. and 5% CO2. From the following day, the culture was carried out by adding 3 kinds of cell division inhibitors (10 μM of uridine, 10 μM of floxuridine, and 1 μM of AraC). […]
For analysis, 5 to 10 regions of the visual field of the NT2-N cells positioned in the system were manually set and the fluorescence intensities were recorded for each region, for Cal-520, every 1 minute for 1 hour continuously at excitation wavelength 480 nm/fluorescence emission wavelength 520 nm, and for Fluo-8, every 2 seconds for 5 minutes continuously at excitation wavelength 480 nm/fluorescence emission wavelength 520 nm. […]

membrane protein (NMDAR) = assay: Membrane protein-based sandwich ELISA; assay type: binding, mouse; conditions: data not shown
Experimental: Pellets of the membrane protein obtained from tau knockout brain by the procedure of the above (7-1) were dissolved in 2% cholic acid or 1% deoxycholate/buffer (50 mM of HEPES, 150 mM of NaCl, pH 7.4), and the solution was centrifuged at 4° C., 150,000×g for 30 minutes to thereby collect the supernatant to use as a membrane protein solution. The obtained membrane protein solution was applied to an ELISA plate (Sumitomo Bakelite Co., Ltd., MS-8596F) and incubated at 4° C. for 60 minutes to thereby coat the plate with the membrane protein. After washing with wash solution (0.004 to 0.008% MNG-3, 50 mM of HEPES, pH 7.4), blocking was done by adding 1% FBS-containing wash solution and incubating at 4° C. for 60 minutes. The solvent of the HT-tau oligomer sample prepared in the above (1-4) was replaced with the wash solution using a protein concentrator (10K MWCO, Pierce, 88526) to thereby prepare a tau oligomer solution of 10^−16 to 10^−6 g/ml. These solutions were applied to the plate and incubated at 4° C. for 15 to 60 minutes. Then, the plate was washed thoroughly with the wash solution and a 5% skim milk-containing wash solution was added, followed by incubating at room temperature for 30 minutes to thereby block the protein. After washing using the wash solution, an anti-HaloTag antibody/wash solution (1:1000 dilution) was added and incubated at room temperature for 30 minutes. Subsequently, the plate was washed with the wash solution, an HRP-labelled secondary antibody/wash solution (Invitrogen, A27036) (1:5000 dilution) was added and incubated at room temperature for 30 minutes. Then, chromogenic reactions were carried out using an Ultra TMB solution (Thermo Fisher Scientific, 34028) to detect the tau oligomers bound to the membrane protein.

NMDAR complex = biological target: T2, NMDAR complex (Mus musculus, UniProt P35436+P35438+Q01097); assay: Far-western blot of HT-tau oligomer on NMDAR complex; assay type: binding; conditions: anti-HaloTag detection
T2 construct: from tissue
T2 sequence (P35436 23-1464, other chains not shown): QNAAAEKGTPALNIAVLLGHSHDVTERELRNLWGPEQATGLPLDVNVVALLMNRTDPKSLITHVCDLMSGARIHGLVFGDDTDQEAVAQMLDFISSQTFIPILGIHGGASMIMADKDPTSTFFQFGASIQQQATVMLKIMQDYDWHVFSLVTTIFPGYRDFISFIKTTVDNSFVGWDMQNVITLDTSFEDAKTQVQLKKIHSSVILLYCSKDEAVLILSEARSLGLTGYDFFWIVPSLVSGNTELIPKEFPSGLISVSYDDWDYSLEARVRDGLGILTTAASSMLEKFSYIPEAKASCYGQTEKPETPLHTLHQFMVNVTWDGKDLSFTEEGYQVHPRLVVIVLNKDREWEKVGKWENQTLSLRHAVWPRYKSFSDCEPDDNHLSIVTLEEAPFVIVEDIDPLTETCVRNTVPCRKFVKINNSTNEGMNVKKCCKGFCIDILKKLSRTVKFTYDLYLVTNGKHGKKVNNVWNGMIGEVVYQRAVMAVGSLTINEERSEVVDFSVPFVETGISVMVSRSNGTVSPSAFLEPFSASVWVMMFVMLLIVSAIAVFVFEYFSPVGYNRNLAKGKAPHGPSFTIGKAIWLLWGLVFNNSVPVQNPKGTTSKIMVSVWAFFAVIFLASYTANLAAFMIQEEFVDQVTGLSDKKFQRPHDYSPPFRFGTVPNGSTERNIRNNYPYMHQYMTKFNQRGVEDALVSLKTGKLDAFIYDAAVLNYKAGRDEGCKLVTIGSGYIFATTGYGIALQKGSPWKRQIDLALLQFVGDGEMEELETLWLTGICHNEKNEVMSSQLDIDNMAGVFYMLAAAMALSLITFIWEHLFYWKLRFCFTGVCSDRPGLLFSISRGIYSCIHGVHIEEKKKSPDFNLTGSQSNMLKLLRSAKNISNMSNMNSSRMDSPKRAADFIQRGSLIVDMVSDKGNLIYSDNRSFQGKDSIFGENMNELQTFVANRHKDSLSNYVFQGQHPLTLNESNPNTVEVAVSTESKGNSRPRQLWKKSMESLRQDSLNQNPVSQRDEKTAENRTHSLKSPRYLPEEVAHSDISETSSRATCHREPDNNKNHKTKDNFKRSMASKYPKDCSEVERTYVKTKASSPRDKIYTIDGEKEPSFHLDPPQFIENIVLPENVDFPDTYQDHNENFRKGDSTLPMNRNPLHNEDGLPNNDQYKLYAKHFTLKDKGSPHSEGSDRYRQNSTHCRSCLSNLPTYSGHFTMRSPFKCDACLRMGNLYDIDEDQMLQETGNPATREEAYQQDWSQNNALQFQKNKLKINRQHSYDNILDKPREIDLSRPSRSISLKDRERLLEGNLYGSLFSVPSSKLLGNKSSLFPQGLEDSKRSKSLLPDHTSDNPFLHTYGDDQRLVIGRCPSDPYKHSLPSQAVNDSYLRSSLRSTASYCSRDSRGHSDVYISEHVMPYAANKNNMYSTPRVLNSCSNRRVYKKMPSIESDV
T2 sequence (Q01097 27-1482, other chains not shown): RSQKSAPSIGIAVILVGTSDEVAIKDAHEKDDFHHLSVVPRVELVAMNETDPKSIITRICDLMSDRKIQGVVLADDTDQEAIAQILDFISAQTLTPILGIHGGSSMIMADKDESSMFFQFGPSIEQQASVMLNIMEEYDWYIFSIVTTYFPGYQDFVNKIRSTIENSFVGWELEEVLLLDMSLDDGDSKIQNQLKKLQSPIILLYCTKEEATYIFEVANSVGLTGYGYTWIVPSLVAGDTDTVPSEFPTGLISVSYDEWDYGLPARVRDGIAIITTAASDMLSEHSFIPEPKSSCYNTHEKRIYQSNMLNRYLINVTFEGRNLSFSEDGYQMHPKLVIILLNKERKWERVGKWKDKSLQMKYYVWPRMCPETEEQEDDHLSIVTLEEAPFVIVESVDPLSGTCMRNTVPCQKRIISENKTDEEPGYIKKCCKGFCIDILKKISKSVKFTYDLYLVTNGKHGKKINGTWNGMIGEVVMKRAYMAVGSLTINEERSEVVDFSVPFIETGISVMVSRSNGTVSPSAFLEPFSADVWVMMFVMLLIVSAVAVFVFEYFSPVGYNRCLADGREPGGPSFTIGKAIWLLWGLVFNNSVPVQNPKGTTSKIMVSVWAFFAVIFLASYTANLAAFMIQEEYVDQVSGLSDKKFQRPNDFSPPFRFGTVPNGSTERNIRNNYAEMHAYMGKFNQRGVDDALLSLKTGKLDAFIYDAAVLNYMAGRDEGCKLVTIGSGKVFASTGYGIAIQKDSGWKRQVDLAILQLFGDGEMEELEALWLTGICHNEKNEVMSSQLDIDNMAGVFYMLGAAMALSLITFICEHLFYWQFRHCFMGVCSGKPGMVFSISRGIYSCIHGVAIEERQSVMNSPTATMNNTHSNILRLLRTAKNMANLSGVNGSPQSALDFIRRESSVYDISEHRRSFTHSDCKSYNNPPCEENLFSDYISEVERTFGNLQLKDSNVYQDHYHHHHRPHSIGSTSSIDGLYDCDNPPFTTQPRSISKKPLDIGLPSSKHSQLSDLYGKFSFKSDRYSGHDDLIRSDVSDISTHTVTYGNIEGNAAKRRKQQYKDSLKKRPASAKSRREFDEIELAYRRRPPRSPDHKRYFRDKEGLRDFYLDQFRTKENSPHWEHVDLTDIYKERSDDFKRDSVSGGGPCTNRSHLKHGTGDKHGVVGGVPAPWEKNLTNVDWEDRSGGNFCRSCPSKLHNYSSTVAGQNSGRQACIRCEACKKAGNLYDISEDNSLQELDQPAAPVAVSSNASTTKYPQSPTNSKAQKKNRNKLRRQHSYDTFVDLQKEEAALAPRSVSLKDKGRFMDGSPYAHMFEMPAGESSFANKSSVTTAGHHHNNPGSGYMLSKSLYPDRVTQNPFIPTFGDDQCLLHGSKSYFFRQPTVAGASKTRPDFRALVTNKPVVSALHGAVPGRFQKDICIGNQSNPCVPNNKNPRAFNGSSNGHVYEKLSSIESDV
Text: The membrane protein prepared by the procedure of the above (7-1) was applied to blue native PAGE (NativePAGE™ 3-12% Bis-Tris Protein Gel (Thermo Fisher Scientific, #BN1003BOX); NativePAGE™ Sample Prep Kit (Thermo Fisher Scientific, #BN2008); and NativePAGE™ Running Buffer Kit (Thermo Fisher Scientific, #BN2007) were used) to thereby obtain crude purified NMDAR (complex of a NMDAR4 tetramer and scaffolding proteins such as PSD95, hereinafter simply described as “NMDAR complex”). The NMDAR complex was transferred from the gel after electrophoresis to PVDF membrane (Merck Millipore, #IPVH00010) (transcription buffer: 25 mM of Tris, 192 mM of glycine, 0.1% SDS, 10% Methanol, pH 8.0). […] Subsequently, the membrane was washed, and the tau oligomer adsorbed onto the PVDF membrane was detected by an anti-HaloTag antibody (Promega Corporation, #G928A) (1:1500 dilution) and an HRP-labelled secondary antibody (Jackson Immuno Research, #111-035-144). Additionally, in a replication experiment carried out in parallel, the NMDAR complex was detected by the same procedure without the exposing step to the tau oligomer sample and using an anti-NR1 antibody (Merck Millipore, #MAB363) (1:2000 dilution), instead of the anti-HaloTag antibody.

NT2-N cells = assay: Adhesion activity of tau oligomers to NT2-N cell surface (fluorescence microscopy); assay type: cell-based, human; conditions: on ice 30 minutes, no membrane permeabilization
Experimental: Cal-520 AM was loaded to the NT2-N cells prepared in the above (4-1) by the procedure of the above (4-2), exposed to the tau oligomer sample (10 μl/ml) prepared in the above (1-3) and incubated on ice for 30 minutes. Subsequently, the cells were washed 3 times with DPBS(−) (137 mM of NaCl, 2.68 mM of KCl, 1.47 mM of KH2PO4, 8.06 mM of Na2HPO4) and fixed with 4% paraformaldehyde at room temperature for 15 minutes. After thorough washing with DPBS(−) (10 minutes×3 times), blocking was done with 1% BSA and 3% donkey serum/DPBS for 30 minutes. Then, the anti-phosphorylated tau antibody (anti-pTau (paired pS409, pS412, pS413), AnaSpec, #AS-55416) (1:1500 dilution) as the primary antibody was reacted at room temperature for 1 hour, and Alexa594-labelled anti-mouse IgG (Jackson Immuno Research, #711-585-152) (1:1500 dilution) as a secondary antibody was reacted at room temperature for 30 minutes, to thereby carry out immunostaining. The stained cells were observed using a fluorescence microscope (BZ-X710, Keyence Corporation).
The HT-tau oligomer sample prepared in the above (1-4), instead of the tau oligomer sample prepared in the above (1-3), was exposed to the NT2-N cells by the same procedure as in the above (5-1). After thorough washing, fluorescence microscopic observation was carried out.

NMDAR [2] = assay: Dot blot of gel-filtered tau oligomer fractions on NMDAR-containing membrane protein; assay type: binding, mouse; conditions: fractions 7 and 8 compared with fractions 6, 9 and 10
Experimental: The membrane protein solution prepared by the procedure of the above (7-1) was diluted 16-fold with the above wash buffer and was spotted (1.5 μl/spot) on a nitrocellulose membrane. Then, the membrane was thoroughly dried to thereby obtain a nitrocellulose membrane on which the NMDAR-containing membrane protein was immobilized. On the other hand, a reaction solution before ultracentrifugation to be obtained in the process of preparing the HT-tau oligomer sample of the above (1-4) was fractionated using a gel filtration column (Superdex 200 10/300 GL column, GE Healthcare) (flow rate 0.5 ml/min, fractionated by 1 ml) to thereby obtain tau oligomer fractions in various sizes. Each of the obtained tau oligomer fractions was exposed to the nitrocellulose membrane on which the NMDAR-containing membrane protein was immobilized, to thereby detect the tau oligomers adsorbed onto the nitrocellulose membrane in the same manner as the detection procedure of tau oligomer in the above (7-2).

NMDA receptor = assay: NMDAR-based sandwich ELISA; assay type: binding, mouse

NC(CCCP(=O)(O)O)C(=O)O (stereo not shown) [APS, 2-amino-5-phosphonopentanoic acid, reference compound]
increase of the intracellular calcium concentration induced by the tau oligomer, in presence of antagonist (NMDAR [1]): lost

N[C@@H](CCC(=O)O)C(=O)O [glutamate, reference compound]
binding of the tau oligomer at low concentrations in the presence of NMDAR ligand (membrane protein (NMDAR)): reduced

NCC(=O)O [glycine, reference compound]
binding of the tau oligomer at low concentrations in the presence of NMDAR ligand (membrane protein (NMDAR)): reduced

HT-tau oligomer: tau oligomer prepared from tau monomer and HaloTag-fused tau monomer mixed in a ratio of 4:1
interaction with NMDAR complex (around 800 kDa and 1100 kDa) (NMDAR complex): interacted with both of them | adhesion to the cell surface (NT2-N cells): patchy pattern of fluorescence was observed

LMW TauO: comparatively low-molecular-weight tau oligomers contained in gel filtration fractions 7 and 8
binding activity to NMDAR (NMDAR [2]): strong binding activity

conantokin-G: a peptide blocking a ligand-binding site of the NMDA receptor (GEEELQENQELIREKSN) [reference compound]
effect on binding of the tau oligomer to the NMDA receptor (NMDA receptor): inhibited
